Where “and” joins values, the source holds several entries; their conditions need not be identical. Equal entries are not always repeated. Inconclusive results and toxic doses are left out. The calls were made as follows: active = survival T/C of 150% or more; inactive = T/C below 125% in these data.
Test system: CD2F1 mice, L1210 leukemia ip, survival T/C
Assay: NCI In Vivo Anticancer Drug Screen. Data for tumor model L1210 Leukemia (intraperitoneal) in CD2F1 (CDF1) mice
Conditions: higher = longer survival
Procedure, shortened: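 In this screen, transplantable tumors were grown in mice given either the compound or its vehicle. Results were expressed as the treated measurement relative to the control measurement.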

[1] = endpoint: mean survival time, dose: 100.0 mg/kg/injection, schedule: Q04DX003 (ip), vehicle: saline with Tween-80
[2] = endpoint: mean survival time, dose: 100.0 mg/kg/injection, schedule: Q04DX003 (ip), vehicle: saline
[3] = endpoint: mean survival time, dose: 200.0 mg/kg/injection, schedule: Q04DX003 (ip), vehicle: saline with Tween-80
[4] = endpoint: mean survival time, dose: 400.0 mg/kg/injection, schedule: Q04DX003 (ip), vehicle: saline with Tween-80
[5] = endpoint: mean survival time, dose: 100.0 mg/kg/injection, schedule: Q01DX001 (ip), vehicle: saline with Tween-80
[6] = endpoint: mean survival time, dose: 50.0 mg/kg/injection, schedule: Q01DX009 (ip), vehicle: saline with Tween-80
[7] = endpoint: mean survival time, dose: 100.0 mg/kg/injection, schedule: Q01DX009 (ip), vehicle: saline with Tween-80
[8] = endpoint: mean survival time, dose: 200.0 mg/kg/injection, schedule: Q01DX009 (ip), vehicle: saline with Tween-80
[9] = endpoint: median survival time, dose: 12.5 mg/kg/injection, schedule: Q01DX005 (ip), vehicle: saline with Tween-80
[10] = endpoint: median survival time, dose: 25.0 mg/kg/injection, schedule: Q01DX005 (ip), vehicle: saline with Tween-80
[11] = endpoint: median survival time, dose: 50.0 mg/kg/injection, schedule: Q01DX005 (ip), vehicle: saline with Tween-80
[12] = endpoint: median survival time, dose: 100.0 mg/kg/injection, schedule: Q01DX005 (ip), vehicle: saline with Tween-80
[13] = endpoint: median survival time, dose: 200.0 mg/kg/injection, schedule: Q01DX005 (ip), vehicle: saline with Tween-80
[14] = endpoint: mean survival time, dose: 100.0 mg/kg/injection, schedule: Q04DX002 (ip), vehicle: saline with Tween-80
[15] = endpoint: mean survival time, dose: 200.0 mg/kg/injection, schedule: Q04DX002 (ip), vehicle: saline with Tween-80
[16] = endpoint: mean survival time, dose: 400.0 mg/kg/injection, schedule: Q04DX002 (ip), vehicle: saline with Tween-80
[17] = endpoint: mean survival time, dose: 200.0 mg/kg/injection, schedule: Q01DX001 (ip), vehicle: saline with Tween-80
[18] = endpoint: mean survival time, dose: 400.0 mg/kg/injection, schedule: Q01DX001 (ip), vehicle: saline with Tween-80
[19] = endpoint: mean survival time, dose: 12.5 mg/kg/injection, schedule: Q01DX009 (ip), vehicle: saline with Tween-80
[20] = endpoint: mean survival time, dose: 25.0 mg/kg/injection, schedule: Q01DX009 (ip), vehicle: saline with Tween-80
[21] = endpoint: mean survival time, dose: 400.0 mg/kg/injection, schedule: Q01DX009 (ip), vehicle: saline with Tween-80
[22] = endpoint: mean survival time, dose: 6.25 mg/kg/injection, schedule: Q01DX009 (ip), vehicle: saline with Tween-80

Measured: T/C

O=Cc1cc(Cl)cc(Cl)c1O.O=Cc1cc(Cl)cc(Cl)c1O.[Co]
inactive: endpoint: mean survival time, dose: 50.0 mg/kg/injection, schedule: Q04DX003 (ip), vehicle: saline with Tween-80 90 % of control | endpoint: mean survival time, dose: 50.0 mg/kg/injection, schedule: Q04DX003 (ip), vehicle: saline 100 % of control | [1] 89 % of control | [2] 96 % of control | [3] 94 % of control | endpoint: mean survival time, dose: 200.0 mg/kg/injection, schedule: Q04DX003 (ip), vehicle: saline 100 % of control | [4] 103 % of control | endpoint: mean survival time, dose: 400.0 mg/kg/injection, schedule: Q04DX003 (ip), vehicle: saline 96 % of control

O=NN(CCCl)C(=O)NC1CCCN(Cc2ccccc2)C1 (stereo not given)
inactive: endpoint: mean survival time, dose: 6.25 mg/kg/injection, schedule: Q01DX001 (ip), vehicle: saline with Tween-80 106 % of control | endpoint: mean survival time, dose: 12.5 mg/kg/injection, schedule: Q01DX001 (ip), vehicle: saline with Tween-80 115 % of control
active: endpoint: mean survival time, dose: 50.0 mg/kg/injection, schedule: Q01DX001 (ip), vehicle: saline with Tween-80 168 % of control | [5] 340 % of control

CCCCCCCCCc1nc(N)nc(N)n1
inactive: [6] 104 % of control | [7] 104 % of control | [8] 104 % of control

CCCCCCCCCCOc1ccc(/C=N\N=C\c2ccc(OCCCCCCCCCC)cc2)cc1
inactive: [1] 94 % of control | [3] 94 % of control | [4] 92 % of control

CSc1nc(NC2OC(CO)C(O)C(O)C2O)c(Br)c(=O)[nH]1 (stereo not given)
inactive: [9] 101 % of control | [10] 101 % of control | [11] 100 % of control | [12] 101 % of control | [13] 100 % of control

NC(=O)COc1ccc(F)cc1
inactive: [14] 97 % of control | [15] 90 % of control | [16] 101 % of control

CC1C(C)C1Cl (stereo not given)
inactive: endpoint: mean survival time, dose: 50.0 mg/kg/injection, schedule: Q01DX005 (ip), vehicle: saline 95 % of control | endpoint: mean survival time, dose: 50.0 mg/kg/injection, schedule: Q01DX009 (ip), vehicle: saline 89 % of control | endpoint: mean survival time, dose: 50.0 mg/kg/injection, schedule: Q04DX002 (ip), vehicle: saline 94 % of control | endpoint: mean survival time, dose: 100.0 mg/kg/injection, schedule: Q01DX005 (ip), vehicle: saline 95 % of control | endpoint: mean survival time, dose: 100.0 mg/kg/injection, schedule: Q01DX009 (ip), vehicle: saline 93 % of control | endpoint: mean survival time, dose: 100.0 mg/kg/injection, schedule: Q04DX002 (ip), vehicle: saline 97 % of control | endpoint: mean survival time, dose: 200.0 mg/kg/injection, schedule: Q01DX005 (ip), vehicle: saline 109 % of control | endpoint: mean survival time, dose: 200.0 mg/kg/injection, schedule: Q01DX009 (ip), vehicle: saline 93 % of control | endpoint: mean survival time, dose: 200.0 mg/kg/injection, schedule: Q04DX002 (ip), vehicle: saline 94 % of control | endpoint: mean survival time, dose: 400.0 mg/kg/injection, schedule: Q01DX005 (ip), vehicle: saline 106 % of control | endpoint: mean survival time, dose: 400.0 mg/kg/injection, schedule: Q01DX009 (ip), vehicle: saline 93 % of control | endpoint: mean survival time, dose: 400.0 mg/kg/injection, schedule: Q04DX002 (ip), vehicle: saline 97 % of control

CCOC(=O)N1CC2CCC(C1)N2C
inactive: [2] 93 % of control

CCC(=O)Nc1cccc(OC(=O)NC(C)(C)CC(C)(C)C)c1
inactive: [5] 98 % of control | [17] 98 % of control | [18] 100 % of control

CSc1nc(NC2OCC(O)C(O)C2O)c(I)c(=O)n1C (stereo not given)
inactive: [9] 103 % of control | [10] 101 % of control | [11] 101 % of control | [12] 100 % of control | [13] 100 % of control

CN1CCN(Cc2nc3cccc4c3c([n+]2[O-])-c2ccccc2-4)CC1
inactive: [19] 91 % of control and 97 % of control and 102 % of control | [20] 96 % of control and 101 % of control and 102 % of control | [6] 94 % of control and 102 % of control and 103 % of control | [7] 117 % of control and 105 % of control and 108 % of control

S=c1sc2ccccc2n1CN1CCCCC1
inactive: [5] 100 % of control | [17] 100 % of control | [18] 108 % of control

NC(=O)c1cn(C2OC(CO)C3OC32)c2ncnc(NC(=O)c3ccccc3)c12 (stereo not given)
inactive: endpoint: mean survival time, dose: 25.0 mg/kg/injection, schedule: Q01DX009 (ip), vehicle: distilled water + Tween-80 90 % of control | endpoint: mean survival time, dose: 50.0 mg/kg/injection, schedule: Q01DX009 (ip), vehicle: distilled water + Tween-80 93 % of control | endpoint: mean survival time, dose: 100.0 mg/kg/injection, schedule: Q01DX009 (ip), vehicle: distilled water + Tween-80 93 % of control | endpoint: mean survival time, dose: 200.0 mg/kg/injection, schedule: Q01DX009 (ip), vehicle: distilled water + Tween-80 97 % of control | endpoint: mean survival time, dose: 400.0 mg/kg/injection, schedule: Q01DX009 (ip), vehicle: distilled water + Tween-80 100 % of control

CC(=O)C1C(=O)CC(C)(O)C(C(C)=O)C1c1ccccc1 (stereo not given)
inactive: [7] 93 % of control | [1] 101 % of control | [8] 96 % of control | [3] 101 % of control | [21] 94 % of control | [4] 103 % of control

COc1cc(N)ccc1NC(=O)c1ccccc1
inactive: [22] 94 % of control | [19] 94 % of control and 100 % of control | [20] 93 % of control and 105 % of control

COc1cc(C2=NCCO2)cc(OC)c1OC
inactive: [1] 103 % of control | [3] 93 % of control | [4] 93 % of control

O=C(c1ccc(-c2ccccc2)cc1)C(Br)C(Br)c1ccccc1 (stereo not given)
inactive: endpoint: mean survival time, dose: 12.5 mg/kg/injection, schedule: Q01DX009 (ip), vehicle: water 95 % of control | endpoint: mean survival time, dose: 50.0 mg/kg/injection, schedule: Q01DX009 (ip), vehicle: water 90 % of control | endpoint: mean survival time, dose: 100.0 mg/kg/injection, schedule: Q01DX009 (ip), vehicle: water 90 % of control | endpoint: mean survival time, dose: 200.0 mg/kg/injection, schedule: Q01DX009 (ip), vehicle: water 102 % of control

c1ccc(CCCNc2nnnc3ccccc23)cc1
inactive: [14] 95 % of control | [15] 103 % of control | [16] 91 % of control

Nc1ccc(CSc2ccc(Cl)cc2)cc1
inactive: endpoint: mean survival time, dose: 400.0 mg/kg/injection, schedule: Q04DX002 (ip), vehicle: Klucel (hydroxypropylcellulose) (HPC) 89 % of control

O=C1CCCCCC2CC12 (stereo not given)
inactive: [7] 94 % of control | [8] 102 % of control | [21] 94 % of control

CCOC(=O)NN=C1CCCC1
inactive: [19] 88 % of control | [20] 88 % of control | [6] 92 % of control

Cc1cccc(C(=O)NN)c1
inactive: endpoint: mean survival time, dose: 75.0 mg/kg/injection, schedule: Q01DX001 (ip), vehicle: saline 106 % of control

N#C/C(=C(/C#N)c1ccccc1)c1ccccc1
inactive: [1] 96 % of control | [3] 94 % of control | [4] 88 % of control

O=[N+]([O-])c1cccc(C2=NNC(c3cccc([N+](=O)[O-])c3)=NN2)c1
inactive: endpoint: median survival time, dose: 50.0 mg/kg/injection, schedule: Q01DX001 (ip), vehicle: saline with Tween-80 88 % of control | endpoint: median survival time, dose: 100.0 mg/kg/injection, schedule: Q01DX001 (ip), vehicle: saline with Tween-80 92 % of control | endpoint: median survival time, dose: 200.0 mg/kg/injection, schedule: Q01DX001 (ip), vehicle: saline with Tween-80 94 % of control | endpoint: median survival time, dose: 400.0 mg/kg/injection, schedule: Q01DX001 (ip), vehicle: saline with Tween-80 95 % of control | endpoint: median survival time, dose: 800.0 mg/kg/injection, schedule: Q01DX001 (ip), vehicle: saline with Tween-80 98 % of control

O=C(COc1ccc(Cl)c(Cl)c1)Nc1cccc(S(=O)(=O)F)c1
inactive: [5] 95 % of control | [17] 95 % of control | [18] 91 % of control

CC(=O)OCC1OC(OC2C(COC(C)=O)OC(OC(C)=O)C(OC(C)=O)C2OC(C)=O)C(OC(C)=O)C(OC(C)=O)C1OC(C)=O (stereo not given)
inactive: endpoint: mean survival time, dose: 100.0 mg/kg/injection, schedule: Q01DX001 (ip), vehicle: saline 100 % of control | endpoint: mean survival time, dose: 200.0 mg/kg/injection, schedule: Q01DX001 (ip), vehicle: saline 91 % of control | endpoint: mean survival time, dose: 400.0 mg/kg/injection, schedule: Q01DX001 (ip), vehicle: saline 97 % of control

C=C[CH2][Sn]([CH2]C=C)([c]1ccccc1)[c]1ccccc1
inactive: [22] 89 % of control | endpoint: median survival time, dose: 25.0 mg/kg/injection, schedule: Q04DX002 (ip), vehicle: saline with Tween-80 112 % of control

O=C(CNC(=O)Nc1ccc(Cl)c(Cl)c1)NNC(=O)Nc1ccc(F)c(Cl)c1
inactive: [7] 96 % of control | [8] 95 % of control | [21] 91 % of control

Source: PubChem BioAssay AID256 (DTP/NCI, 2004)
